Assay results: PubChem BioAssay AID1259407 (Chemical Carcinogenesis Research Information System (CCRIS), 2018)
Calls of active or inactive are those of the source. No rule for the calls is given here.

Tested on: CCRIS mutagenicity, Ames/micronucleus/aberration tests
Experiment: CCRIS mutagenicity studies
[1] = Test System: AMES SALMONELLA TYPHIMURIUM, Strain/Indicator: TA98, Metabolic Activation: NONE, Method: STANDARD PLATE
[2] = Test System: AMES SALMONELLA TYPHIMURIUM, Strain/Indicator: TA98, Metabolic Activation: RAT, LIVER, S-9, AROCLOR 1254, Method: STANDARD PLATE
[3] = Test System: AMES SALMONELLA TYPHIMURIUM, Strain/Indicator: TA100, Metabolic Activation: NONE, Method: STANDARD PLATE
[4] = Test System: AMES SALMONELLA TYPHIMURIUM, Strain/Indicator: TA100, Metabolic Activation: RAT, LIVER, S-9, AROCLOR 1254, Method: STANDARD PLATE
[5] = Test System: AMES SALMONELLA TYPHIMURIUM, Strain/Indicator: TA1535, Metabolic Activation: NONE, Method: STANDARD PLATE
[6] = Test System: AMES SALMONELLA TYPHIMURIUM, Strain/Indicator: TA1535, Metabolic Activation: RAT, LIVER, S-9, AROCLOR 1254, Method: STANDARD PLATE
[7] = Test System: AMES SALMONELLA TYPHIMURIUM, Strain/Indicator: TA1537, Metabolic Activation: NONE, Method: STANDARD PLATE
[8] = Test System: AMES SALMONELLA TYPHIMURIUM, Strain/Indicator: TA1537, Metabolic Activation: RAT, LIVER, S-9, AROCLOR 1254, Method: STANDARD PLATE
[9] = Test System: AMES SALMONELLA TYPHIMURIUM, Strain/Indicator: TA1538, Metabolic Activation: NONE, Method: STANDARD PLATE
[10] = Test System: AMES SALMONELLA TYPHIMURIUM, Strain/Indicator: TA1538, Metabolic Activation: RAT, LIVER, S-9, AROCLOR 1254, Method: STANDARD PLATE
[11] = Test System: AMES SALMONELLA TYPHIMURIUM, Strain/Indicator: TA100, Metabolic Activation: NONE, Method: PREINCUBATION

Measured: mutagenic call

C/C=C/c1cc(OC)c(OC)cc1OC
active: Test System: AMES SALMONELLA TYPHIMURIUM, Strain/Indicator: TA100, Metabolic Activation: S-9 active; positive | [5] active; positive | Test System: UDS RAT HEPATOCYTES, Strain/Indicator: THY INCORP, Metabolic Activation: NONE, Method: LIQUID SCINTILLATION COUNTING active; positive
inactive: Test System: AMES SALMONELLA TYPHIMURIUM, Strain/Indicator: TA97, Metabolic Activation: NONE, Method: STANDARD PLATE inactive; negative | Test System: AMES SALMONELLA TYPHIMURIUM, Strain/Indicator: TA97, Metabolic Activation: RAT, LIVER, S-9, AROCLOR 1254, Method: STANDARD PLATE inactive; negative | [1] inactive; negative | [2] inactive; negative | Test System: AMES SALMONELLA TYPHIMURIUM, Strain/Indicator: TA100, Metabolic Activation: NONE inactive; negative | [3] inactive; negative | [4] inactive; negative | [6] inactive; negative | [7] inactive; negative | [8] inactive; negative | [9] inactive; negative | [10] inactive; negative

C=C(C)C(=O)OCCO
inactive: Test System: AMES SALMONELLA TYPHIMURIUM, Strain/Indicator: TA97A, Metabolic Activation: NONE, Method: STANDARD PLATE inactive; negative | [1] inactive; negative | [2] inactive; negative | Test System: AMES SALMONELLA TYPHIMURIUM, Strain/Indicator: TA98, Metabolic Activation: RAT, LIVER, S-9, SODIUM PHENOBARBITAL, Method: STANDARD PLATE inactive; negative | [3] inactive; negative | [4] inactive; negative | Test System: AMES SALMONELLA TYPHIMURIUM, Strain/Indicator: TA100, Metabolic Activation: RAT, LIVER, S-9, SODIUM PHENOBARBITAL, Method: STANDARD PLATE inactive; negative | Test System: AMES SALMONELLA TYPHIMURIUM, Strain/Indicator: TA102, Metabolic Activation: NONE, Method: STANDARD PLATE inactive; negative | Test System: AMES SALMONELLA TYPHIMURIUM, Strain/Indicator: TA104, Metabolic Activation: NONE, Method: STANDARD PLATE inactive; negative | [5] inactive; negative | [6] inactive; negative | Test System: AMES SALMONELLA TYPHIMURIUM, Strain/Indicator: TA1535, Metabolic Activation: RAT, LIVER, S-9, SODIUM PHENOBARBITAL, Method: STANDARD PLATE inactive; negative | [7] inactive; negative | [8] inactive; negative | Test System: AMES SALMONELLA TYPHIMURIUM, Strain/Indicator: TA1537, Metabolic Activation: RAT, LIVER, S-9, SODIUM PHENOBARBITAL, Method: STANDARD PLATE inactive; negative | [9] inactive; negative | [10] inactive; negative | Test System: AMES SALMONELLA TYPHIMURIUM, Strain/Indicator: TA1538, Metabolic Activation: RAT, LIVER, S-9, SODIUM PHENOBARBITAL, Method: STANDARD PLATE inactive; negative | Test System: CHINESE HAMSTER V-79, Strain/Indicator: V79 (HPRT)/6-THIOGUANINE, Metabolic Activation: NONE inactive; negative

Oc1ccc2cc(SSc3ccc4cc(O)ccc4c3)ccc2c1
inactive: Test System: AMES SALMONELLA TYPHIMURIUM, Strain/Indicator: TA97, Metabolic Activation: HAMSTER, LIVER, S-9, AROCLOR 1254 (10 OR 30%), Method: PREINCUBATION inactive; negative | Test System: AMES SALMONELLA TYPHIMURIUM, Strain/Indicator: TA97, Metabolic Activation: NONE, Method: PREINCUBATION inactive; negative | Test System: AMES SALMONELLA TYPHIMURIUM, Strain/Indicator: TA97, Metabolic Activation: RAT, LIVER, S-9, AROCLOR 1254 (10 OR 30%), Method: PREINCUBATION inactive; negative | Test System: AMES SALMONELLA TYPHIMURIUM, Strain/Indicator: TA98, Metabolic Activation: HAMSTER, LIVER, S-9, AROCLOR 1254 (10 OR 30%), Method: PREINCUBATION inactive; negative | Test System: AMES SALMONELLA TYPHIMURIUM, Strain/Indicator: TA98, Metabolic Activation: NONE, Method: PREINCUBATION inactive; negative | Test System: AMES SALMONELLA TYPHIMURIUM, Strain/Indicator: TA98, Metabolic Activation: RAT, LIVER, S-9, AROCLOR 1254 (5 OR 30%), Method: PREINCUBATION inactive; negative | Test System: AMES SALMONELLA TYPHIMURIUM, Strain/Indicator: TA98, Metabolic Activation: RAT, LIVER, S-9, AROCLOR 1254 (10%), Method: PREINCUBATION inactive; negative | Test System: AMES SALMONELLA TYPHIMURIUM, Strain/Indicator: TA100, Metabolic Activation: HAMSTER, LIVER, S-9, AROCLOR 1254 (10 OR 30%), Method: PREINCUBATION inactive; negative | [11] inactive; negative | Test System: AMES SALMONELLA TYPHIMURIUM, Strain/Indicator: TA100, Metabolic Activation: RAT, LIVER, S-9, AROCLOR 1254 (5 OR 30%), Method: PREINCUBATION inactive; negative | Test System: AMES SALMONELLA TYPHIMURIUM, Strain/Indicator: TA100, Metabolic Activation: RAT, LIVER, S-9, AROCLOR 1254 (10%), Method: PREINCUBATION inactive; negative | Test System: AMES SALMONELLA TYPHIMURIUM, Strain/Indicator: TA102, Metabolic Activation: HAMSTER, LIVER, S-9, AROCLOR 1254 (10 OR 30%), Method: PREINCUBATION inactive; negative | Test System: AMES SALMONELLA TYPHIMURIUM, Strain/Indicator: TA102, Metabolic Activation: NONE, Method: PREINCUBATION inactive; negative | Test System: AMES SALMONELLA TYPHIMURIUM, Strain/Indicator: TA102, Metabolic Activation: RAT, LIVER, S-9, AROCLOR 1254 (10 OR 30%), Method: PREINCUBATION inactive; negative | Test System: AMES SALMONELLA TYPHIMURIUM, Strain/Indicator: TA1535, Metabolic Activation: RAT, LIVER, S-9, AROCLOR 1254 (5, 10 OR 30%), Method: PREINCUBATION inactive; negative | Test System: AMES SALMONELLA TYPHIMURIUM, Strain/Indicator: TA1538, Metabolic Activation: RAT, LIVER, S-9, AROCLOR 1254 (5, 10 OR 30%), Method: PREINCUBATION inactive; negative

CCCCNC(=O)c1cc(N)ccc1Oc1ccccc1
inactive: Test System: Ames Salmonella typhimurium, Strain/Indicator: TA98, Metabolic Activation: None, Method: Preincubation inactive; negative. data for this compound, pa10, mentioned in abstract only. | Test System: Ames Salmonella typhimurium, Strain/Indicator: TA98, Metabolic Activation: Rat, Liver, S-9, Phenobarbital and beta-naphthoflavone, Method: Preincubation inactive; negative. this compound, pa10, converted by s-9 to a hydroxy derivative. | Test System: Ames Salmonella typhimurium, Strain/Indicator: TA100, Metabolic Activation: None, Method: Preincubation inactive; negative. data for this compound, pa10, mentioned in abstract only. | Test System: Ames Salmonella typhimurium, Strain/Indicator: TA100, Metabolic Activation: Rat, Liver, S-9, Phenobarbital and beta-naphthoflavone, Method: Preincubation inactive; negative. this compound, pa10, converted by s-9 to a hydroxy derivative. | Test System: Ames Salmonella typhimurium, Strain/Indicator: TA102, Metabolic Activation: None, Method: Preincubation inactive; negative. data for this compound, pa10, mentioned in abstract only. | Test System: Ames Salmonella typhimurium, Strain/Indicator: TA1535, Metabolic Activation: None, Method: Preincubation inactive; negative. data for this compound, pa10, mentioned in abstract only. | Test System: Ames Salmonella typhimurium, Strain/Indicator: TA1537, Metabolic Activation: None, Method: Preincubation inactive; negative. data for this compound, pa10, mentioned in abstract only.

CCCC/C=C/C=C/C=C/C=C/C=C/OC[C@@H](O)CO
active: [11] active; positive | Test System: AMES SALMONELLA TYPHIMURIUM, Strain/Indicator: TA100, Metabolic Activation: RAT, LIVER, S-9, AROCLOR 1254, Method: PREINCUBATION active; positive
